Like-named read-outs stand apart in the source and are kept apart here. One block for each compound: values may come before it.
How the values were obtained:
[1] = tested on: taste bud cells in porcine taste tissue; assay: Multiphoton fluorescence intensity imaging of stimulated porcine taste tissue in flowing perfusing medium; assay type: cell-based
Experimental: Two papillae in close proximity to one another were loaded in this manner. The papillae were extracted from the larger piece of tissue and placed into the open chamber configuration (this work was done prior to that using the closed, gasketed chamber). The tissue was repeatedly stimulated with 20 mmol/L citric acid using the 1.0 mL/min flow rate and 1.0 mL sample loop, switched to the load position as time series data acquisition began. The imaging parameters were as follows: 400 Hz galvo scan rate, 2× zoom with 63× objective, 256×256 pixel image format, 2× frame average, 810 nm laser at 36%, and 0.5 Hz frame scan rate. The tissue was received at approximately 8:00 am, transported in oxygenated Tyrode's solution to the lab, loaded at approximately 10:00 am and imaged at approximately 11:00 am. Cells from two adjacent taste buds within the second papilla were imaged in xyzt mode at a depth of approximately 35 micrometers. […] The time series data were processed using the alignment tools development to address the tissue movement issues. […] However, the movement in this case was primarily in the x-y plane, and therefore the alignment algorithm provided sufficient alignment. […] However, the relative difference in emission and differences in slope due to photobleaching makes comparison between cells difficult. […]

[2] = tested on: taste cells in porcine taste tissue (fungiform papilla taste bud); assay: Multiphoton fluorescence lifetime imaging (MP-FLIM) of stimulated porcine taste tissue in static bath; assay type: cell-based; conditions: for response of taste cells to stimuli (calcium green lifetime imaging): bulk addition: 0.5 mL of 25-micromolar cycloheximide, then 0.5 mL of 1-millimolar sucralose, in deionized water
Excerpt: Fresh porcine taste tissue was procured in the prescribed manner from a local slaughterhouse and transported, after removal from the tongue, in chilled, oxygenated Tyrode's solution to the preparation laboratory. The tissue was affixed to a coated Petri dish and taste buds iontophoretically loaded (1.0 microampere) with calcium green dextran dye (1 mmol/L in DI water) via a drawn capillary pipette. Several taste pores were loaded on a papilla, with several papillae loaded overall, providing 3-5 taste buds loaded with dye. The tissue was mounted in a chamber and placed onto the microscope stage. The sample was imaged using the 63× water-dipping objective, 60% laser power at 810-nm excitation, in xzy mode (256×256 pixels) in order to image the taste bud and surface features at once in a longitudinal section. The photomultiplier tube gain on the FLIM system was set to 85% and the initial Leica settings (non-optimized) were used to capture FLIM images of the tissue over a 10-15 minute time course.
The same field of view was then imaged using the multiphoton lifetime imaging capability of the instrument. The optical conditions for lifetime mage collection are identical to intensity-based imaging, except that in photon counting mode the collection requires 30 seconds in this case for adequate signal to noise. The lifetimes were calculated by a double exponential fit of the decay curves and color-coded based on average lifetime per pixel. Red values are shorter lifetimes in this case. […] The shortest lifetime evident in this image is associated with the apical end of the taste cell directly below the pore. At rest, the average lifetime for all of the cells in the field of view is 1,634 picoseconds. The short lifetime component of the fit was set to 350 picoseconds, an estimate of the short lifetime component based on initial calcium calibrations in order to facilitate rapid fitting of the data for comparison.
The taste bud was exposed to several gross stimuli: cycloheximide and sucralose in deionized water. The purpose of this stimulus experiment was to determine if the bud would remain viable during the time course of a stimulus and if possible, to determine the presence of a gross response via lifetime imaging. The stimulants were applied via bulk addition to the chamber holding the tissue: 0.5 mL of 25-micromolar cycloheximide was first added after removal of 1 mL buffer; 0.5 mL of 1 -millimolar sucralose added after the cycloheximide stimulus and removal of additional 1 mL buffer. The MP-FLIM image data were collected at approximately 1-minute intervals using the same optical and exposure conditions used to generate the resting image described above. […]

[3] = Calcium green-1 dextran dissociation constant from MP-FLIM lifetime and intensity data in CaEGTA calcium buffers; assay type: binding
Experimental: Calcium buffers (CaEGTA) and calcium green-1 dextran (CaGD) were purchased from Molecular Probes. The calcium buffers provide free Ca^+2 over a nanomolar to millimolar concentration range in a matrix closely matching the pH and ionic strength of the cytosol. The lifetimes and relative contributions of these bound and unbound decays are determined by fitting multi-exponential curves to the instrumental data. Buffer kit #2 (0-39 micromoles/L free Ca^+2) was used in this work to determine the response of calcium green dextran to low calcium concentrations. Initial work was done with Buffer kit #3, but the range of free Ca^+2 (0-1000 micromoles/L) was too high for the dye chosen. Calcium ion concentration is approximately 0.1 micromoles/L in resting cell's cytoplasm and in the increases to the micromolar range upon stimulus (Pollard, 2002).
Samples were analyzed in a random order during each experiment using the MP-FLIM system and a quartz solution cell. […] Each sample produced two full fields of view (256×256) where each image pixel contains a decay curve. As the calcium green dextran was present in bound and unbound forms, double exponential fits were performed using SPCImage (version 2.7.7238.0). The double exponential decays were calculated for each sample on the entire field of view, generating 65,536 values for each field of view. The average decay for each field of view was calculated as a sum of the per pixel lifetime values weighted by the amplitudes (contributions) of each lifetime to each pixel. Table 1 details the results for the calculation of the unbound dye fluorescence lifetime. The average τ1 from the measurements is 405.6 ps, with a sample standard variance of approximately 1.0 ps.
The balance of the calcium buffer data were analyzed using the SPCImage software under similar conditions as given in Table 1, with the exception that the short lifetime was fixed to 405.6 ps in the model parameters settings box. In addition, the zero Ca^+2 buffer average lifetimes were recalculated using the fixed short lifetime value. Due to instabilities in the software interface, the short lifetime was designated as τ2 in the fit parameters box. A second order polynomial fit of average lifetime in picoseconds versus calcium concentration in micromoles/L for a calcium concentration range from 0 to 0.602 micromoles/L yields the relationship: τavg=−3047 c^2+4472 c+601, R^2=0.9976; RMSE=30.9 ps.
A significant reported advantage of fluorescence lifetime measurements is that the dependence of fluorescence lifetime on calcium concentration is insensitive to dye concentration provided the dye itself is at low enough concentrations so as to not buffer the calcium ion in the cell or the cuvette. In order to test this property in the calcium green dextran system, additional sample sets were made up with 2.5-micromoles/L dye and 9.9-micromoles/L dye in the buffer solutions. The variations in lifetime data and intensity data with dye concentrations are given in FIG. 2 and FIG. 3, respectively. The lifetime data appears to be invariant with dye concentration, where the average standard deviation (variation in lifetime with dye concentration at each calcium concentration) for the lifetime data on the order or 25 ps. In contrast, the intensity variability is significant, where the intensity of the fluorescence is dependent upon the calcium concentration and the dye concentration.
Finally, calcium green-1 dissociation constants were calculated for the various dye concentrations using lifetime and intensity-based data sets.

[4] = read-out: KD for calcium; cited from earlier work

Compound: O=C(O)CC(O)(CC(=O)O)C(=O)O [citric acid]
- baseline corrected average fluorescence intensity per cell (intracellular calcium response) ([1]; 20 mmol/L citric acid, 1.0 mL/min flow, 1.0 mL sample loop, seven cells in field of view): strong response to the stimulus in cell 1 with lower magnitude responses in other cells
- response to successive stimuli ([1]; three successive 20 mmol/L citric acid stimuli, 5 minutes artificial saliva between stimuli): decrease in response to subsequent stimulus

Compound: C[C@@H]1C[C@@H]([C@H](O)CC2CC(=O)NC(=O)C2)C(=O)[C@@H](C)C1 [cycloheximide]
- response of taste cells to stimuli (calcium green lifetime imaging) [2]: taste cells responded to the stimuli

Compound: OC[C@H]1O[C@H](O[C@]2(CCl)O[C@H](CCl)[C@@H](O)[C@@H]2O)[C@H](O)[C@@H](O)[C@H]1Cl [sucralose]
- calcium concentration surrounding the taste cells during stimulus ([2]; 0.5 mL of 1-millimolar sucralose, bulk addition): decreased
- change of calcium green lifetime around the taste cells on stimulus ([2]; 0.5 mL of 1-millimolar sucralose, bulk addition after cycloheximide stimulus, images at about 1-minute intervals): significant shortening of the calcium green lifetime around the taste cells
- response of taste cells to stimuli (calcium green lifetime imaging) [2]: taste cells responded to the stimuli

- Kd ([3]; dye concentration 2.5 micromoles/L, read-out: Kd, Intensity Data): 482 nM
- Kd ([3]; dye concentration 2.5 micromoles/L, read-out: Kd, Lifetime Data): 342 nM
- Kd ([3]; dye concentration 5.0 micromoles/L, read-out: Kd, Intensity Data): 520 nM
- Kd ([3]; dye concentration 5.0 micromoles/L, read-out: Kd, Lifetime Data): 329 nM
- Kd ([3]; dye concentration 9.9 micromoles/L, read-out: Kd, Intensity Data): 382 nM
- Kd ([3]; dye concentration 9.9 micromoles/L, read-out: Kd, Lifetime Data): 290 nM
Compound: calcium green-1 dextran
- Kd [4]: ~540 nM
